{"source": "PubChem BioAssay AID256", "about": "(DTP/NCI, 2004)", "tested_on": "CD2F1 mice, L1210 leukemia ip, survival T/C", "test": "NCI In Vivo Anticancer Drug Screen. Data for tumor model L1210 Leukemia (intraperitoneal) in CD2F1 (CDF1) mice", "settings": "higher = longer survival", "method_in_brief": "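Transplantable tumor in mice; compound-treated vs vehicle-treated groups. Read-out = treated/control ratio of the measured endpoint.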", "key": {"[1]": {"settings": "endpoint: mean survival time, dose: 100.0 mg/kg/injection, schedule: Q04DX003 (ip), vehicle: saline with Tween-80"}, "[2]": {"settings": "endpoint: mean survival time, dose: 200.0 mg/kg/injection, schedule: Q04DX003 (ip), vehicle: saline with Tween-80"}, "[3]": {"settings": "endpoint: mean survival time, dose: 400.0 mg/kg/injection, schedule: Q04DX003 (ip), vehicle: saline with Tween-80"}, "[4]": {"settings": "endpoint: mean survival time, dose: 100.0 mg/kg/injection, schedule: Q01DX001 (ip), vehicle: saline with Tween-80"}, "[5]": {"settings": "endpoint: mean survival time, dose: 200.0 mg/kg/injection, schedule: Q01DX001 (ip), vehicle: saline with Tween-80"}, "[6]": {"settings": "endpoint: mean survival time, dose: 400.0 mg/kg/injection, schedule: Q01DX001 (ip), vehicle: saline with Tween-80"}, "[7]": {"settings": "endpoint: mean survival time, dose: 6.25 mg/kg/injection, schedule: Q04DX003 (ip), vehicle: saline"}, "[8]": {"settings": "endpoint: mean survival time, dose: 12.5 mg/kg/injection, schedule: Q04DX003 (ip), vehicle: saline"}, "[9]": {"settings": "endpoint: mean survival time, dose: 25.0 mg/kg/injection, schedule: Q04DX003 (ip), vehicle: saline"}, "[10]": {"settings": "endpoint: mean survival time, dose: 100.0 mg/kg/injection, schedule: Q04DX003 (ip), vehicle: other"}, "[11]": {"settings": "endpoint: mean survival time, dose: 200.0 mg/kg/injection, schedule: Q04DX003 (ip), vehicle: other"}, "[12]": {"settings": "endpoint: mean survival time, dose: 400.0 mg/kg/injection, schedule: Q04DX003 (ip), vehicle: other"}}, "note": "“And” between values parts separate entries of the source, which are not always exact repeats. Identical values can stand only once. Toxic doses and inconclusive results are not listed.", "data": [{"smiles": "C1=C[N-]c2c3c(ccc2=C1)=CC=C[N-]3.C1=C[N-]c2c3c(ccc2=C1)=CC=C[N-]3.[Cl][Ru][Cl]", "values": [{"measurement": "T/C", "setting": "endpoint: mean survival time, dose: 3.13 mg/kg/injection, schedule: Q04DX003 (ip), vehicle: water", "result": "90 % of control"}, {"measurement": "T/C", "setting": "endpoint: mean survival time, dose: 6.25 mg/kg/injection, schedule: Q04DX003 (ip), vehicle: water", "result": "90 % of control"}, {"measurement": "T/C", "setting": "endpoint: mean survival time, dose: 12.5 mg/kg/injection, schedule: Q04DX003 (ip), vehicle: water", "result": "88 % of control"}]}, {"smiles": "O=S(=O)(N=C1C(Cl)=C(Cl)C(=NS(=O)(=O)c2ccccc2)C(Cl)=C1Cl)c1ccccc1", "values": [{"measurement": "T/C", "setting": "endpoint: mean survival time, dose: 100.0 mg/kg/injection, schedule: Q04DX003 (ip), vehicle: Klucel (hydroxypropylcellulose) (HPC)", "result": "97 % of control"}, {"measurement": "T/C", "setting": "endpoint: mean survival time, dose: 200.0 mg/kg/injection, schedule: Q04DX003 (ip), vehicle: Klucel (hydroxypropylcellulose) (HPC)", "result": "95 % of control"}, {"measurement": "T/C", "setting": "endpoint: mean survival time, dose: 400.0 mg/kg/injection, schedule: Q04DX003 (ip), vehicle: Klucel (hydroxypropylcellulose) (HPC)", "result": "93 % of control"}]}, {"smiles": "Nc1nc(N)n2nnnc2c1[N+](=O)[O-]", "values": [{"measurement": "T/C", "setting": "endpoint: mean survival time, dose: 100.0 mg/kg/injection, schedule: Q01DX001 (ip), vehicle: carboxymethylcellulose (CMC)", "result": "108 % of control"}]}, {"smiles": "CCN(CC)Cc1cc(Nc2ncnc3sc(C)c(C)c23)ccc1O", "values": [{"measurement": "T/C", "setting": "[1]", "result": "92 % of control"}, {"measurement": "T/C", "setting": "[2]", "result": "88 % of control"}, {"measurement": "T/C", "setting": "[3]", "result": "91 % of control"}]}, {"smiles": "O=C(/C=C/c1ccccc1)NC1CC1", "values": [{"measurement": "T/C", "setting": "[4]", "result": "94 % of control"}, {"measurement": "T/C", "setting": "[5]", "result": "89 % of control"}, {"measurement": "T/C", "setting": "[6]", "result": "93 % of control"}]}, {"smiles": "S=C=NCc1cccc(CN=C=S)c1", "values": [{"measurement": "T/C", "setting": "endpoint: mean survival time, dose: 1.5 mg/kg/injection, schedule: Q01DX009 (ip), vehicle: saline with Tween-80", "result": "98 % of control"}, {"measurement": "T/C", "setting": "endpoint: mean survival time, dose: 3.0 mg/kg/injection, schedule: Q01DX009 (ip), vehicle: saline with Tween-80", "result": "101 % of control"}, {"measurement": "T/C", "setting": "[7]", "result": "101 % of control"}, {"measurement": "T/C", "setting": "[8]", "result": "103 % of control"}, {"measurement": "T/C", "setting": "[9]", "result": "101 % of control"}]}, {"smiles": "Cc1nccc(N)n1", "values": [{"measurement": "T/C", "setting": "[4]", "result": "89 % of control"}, {"measurement": "T/C", "setting": "[5]", "result": "90 % of control"}, {"measurement": "T/C", "setting": "[6]", "result": "90 % of control"}]}, {"smiles": "COC(=O)NCCCCl", "values": [{"measurement": "T/C", "setting": "endpoint: mean survival time, dose: 37.5 mg/kg/injection, schedule: Q01DX007 (ip), vehicle: saline", "result": "94 % of control"}, {"measurement": "T/C", "setting": "endpoint: mean survival time, dose: 75.0 mg/kg/injection, schedule: Q01DX007 (ip), vehicle: saline", "result": "103 % of control"}, {"measurement": "T/C", "setting": "endpoint: mean survival time, dose: 150.0 mg/kg/injection, schedule: Q01DX007 (ip), vehicle: saline", "result": "97 % of control"}, {"measurement": "T/C", "setting": "endpoint: mean survival time, dose: 300.0 mg/kg/injection, schedule: Q01DX007 (ip), vehicle: saline", "result": "94 % of control"}, {"measurement": "T/C", "setting": "endpoint: mean survival time, dose: 600.0 mg/kg/injection, schedule: Q01DX007 (ip), vehicle: saline", "result": "94 % of control"}]}, {"smiles": "Cc1ccc(CCF)cc1", "values": [{"measurement": "T/C", "setting": "[4]", "result": "107 % of control"}, {"measurement": "T/C", "setting": "[5]", "result": "109 % of control"}]}, {"smiles": "CCOC(=O)Nc1cccc(Cl)c1F", "values": [{"measurement": "T/C", "setting": "endpoint: mean survival time, dose: 100.0 mg/kg/injection, schedule: Q01DX009 (ip), vehicle: saline with Tween-80", "result": "91 % of control"}, {"measurement": "T/C", "setting": "endpoint: mean survival time, dose: 200.0 mg/kg/injection, schedule: Q01DX009 (ip), vehicle: saline with Tween-80", "result": "97 % of control"}, {"measurement": "T/C", "setting": "endpoint: mean survival time, dose: 400.0 mg/kg/injection, schedule: Q01DX009 (ip), vehicle: saline with Tween-80", "result": "96 % of control"}]}, {"smiles": "Oc1ccc(CCl)cc1O", "values": [{"measurement": "T/C", "setting": "endpoint: mean survival time, dose: 25.0 mg/kg/injection, schedule: Q01DX001 (ip), vehicle: saline with Tween-80", "result": "107 % of control"}, {"measurement": "T/C", "setting": "endpoint: mean survival time, dose: 50.0 mg/kg/injection, schedule: Q01DX001 (ip), vehicle: saline with Tween-80", "result": "100 % of control"}, {"measurement": "T/C", "setting": "[4]", "result": "89 % of control and 103 % of control"}]}, {"smiles": "CC([NH-])CC(C)[NH-].O=[N+]([O-])O.O=[N+]([O-])O.[Pt+2]", "note": "(stereo unspecified)", "values": [{"measurement": "T/C", "setting": "[7]", "result": "154 % of control"}, {"measurement": "T/C", "setting": "[8]", "result": "247 % of control"}, {"measurement": "T/C", "setting": "[9]", "result": "207 % of control"}]}, {"smiles": "CC(=O)Nc1ccc(F)cc1", "values": [{"measurement": "T/C", "setting": "endpoint: mean survival time, dose: 100.0 mg/kg/injection, schedule: Q04DX003 (ip), vehicle: saline", "result": "105 % of control"}, {"measurement": "T/C", "setting": "endpoint: mean survival time, dose: 200.0 mg/kg/injection, schedule: Q04DX003 (ip), vehicle: saline", "result": "100 % of control"}, {"measurement": "T/C", "setting": "endpoint: mean survival time, dose: 400.0 mg/kg/injection, schedule: Q04DX003 (ip), vehicle: saline", "result": "95 % of control"}]}, {"smiles": "O=C1CC2C=CC1CC2", "note": "(stereo unspecified)", "values": [{"measurement": "T/C", "setting": "[10]", "result": "105 % of control"}, {"measurement": "T/C", "setting": "[11]", "result": "101 % of control"}, {"measurement": "T/C", "setting": "[12]", "result": "100 % of control"}]}, {"smiles": "CCN(CC)C(=S)S", "values": [{"measurement": "T/C", "setting": "[10]", "result": "94 % of control"}, {"measurement": "T/C", "setting": "[11]", "result": "97 % of control"}, {"measurement": "T/C", "setting": "[12]", "result": "103 % of control"}]}, {"smiles": "CCN(CC)Cc1cc2[nH]c3c4ccc(Cl)cc4ncc3c2cc1OC", "values": [{"measurement": "T/C", "setting": "endpoint: median survival time, dose: 6.25 mg/kg/injection, schedule: Q01DX009 (ip), vehicle: saline with Tween-80", "result": "102 % of control"}, {"measurement": "T/C", "setting": "endpoint: median survival time, dose: 12.5 mg/kg/injection, schedule: Q01DX009 (ip), vehicle: saline with Tween-80", "result": "102 % of control"}, {"measurement": "T/C", "setting": "endpoint: median survival time, dose: 25.0 mg/kg/injection, schedule: Q01DX009 (ip), vehicle: saline with Tween-80", "result": "103 % of control"}, {"measurement": "T/C", "setting": "endpoint: median survival time, dose: 50.0 mg/kg/injection, schedule: Q01DX009 (ip), vehicle: saline with Tween-80", "result": "111 % of control"}]}, {"smiles": "O=C(NC(=O)c1ccccc1)c1ccccc1", "values": [{"measurement": "T/C", "setting": "endpoint: mean survival time, dose: 100.0 mg/kg/injection, schedule: Q01DX001 (ip), vehicle: Klucel (hydroxypropylcellulose) (HPC)", "result": "101 % of control"}, {"measurement": "T/C", "setting": "[1]", "result": "103 % of control"}, {"measurement": "T/C", "setting": "endpoint: mean survival time, dose: 200.0 mg/kg/injection, schedule: Q01DX001 (ip), vehicle: Klucel (hydroxypropylcellulose) (HPC)", "result": "102 % of control"}, {"measurement": "T/C", "setting": "[2]", "result": "102 % of control"}, {"measurement": "T/C", "setting": "endpoint: mean survival time, dose: 400.0 mg/kg/injection, schedule: Q01DX001 (ip), vehicle: Klucel (hydroxypropylcellulose) (HPC)", "result": "96 % of control"}, {"measurement": "T/C", "setting": "[3]", "result": "97 % of control"}]}]}
